Reference: US12291519B2, “2-hydroxycycloalkane-1-carbamoyl” (Idorsia Pharmaceuticals Ltd, priority 2019, dated 2025)

Columns and labels:
[1] = molecular target: human Gal-1 (hGal-1); experiment: Competitive binding assay: biotinylated hGal-1 binding to microplate-adsorbed asialofetuin (ASF); settings: Activity on hGal-1; binding of biotinylated hGal-1 to ASF-coated plates; mean values
How it was run: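 Inhibition measured as loss of hGal-1 (biotinylated, 300–1000 ng/mL, wild type or Cys→Ser mutant) binding to adsorbed asialofetuin over 3 h at 4 °C. Bound lectin detected with streptavidin-HRP and ABTS (410 nm, 30–45 min); IC50 values averaged across repeat measurements.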

[2] = molecular target: human Gal-3 (hGal-3) (Homo sapiens (Human), UniProt P17931); experiment: Competitive binding assay: biotinylated hGal-3 binding to microplate-adsorbed asialofetuin (ASF); settings: Activity on hGal-3; binding of biotinylated hGal-3 to ASF-coated plates; mean values
How it was run: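 Serially diluted compounds competed with biotinylated human Gal-3 for binding to plate-adsorbed asialofetuin over 3 h at 4 °C. Bound Gal-3 was detected with streptavidin-peroxidase (80 ng/mL, 1 h, 4 °C) and ABTS substrate. IC50 values are means of several measurements.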

human Gal-1 (hGal-1), sequence (P09382 2-135 limits assumed): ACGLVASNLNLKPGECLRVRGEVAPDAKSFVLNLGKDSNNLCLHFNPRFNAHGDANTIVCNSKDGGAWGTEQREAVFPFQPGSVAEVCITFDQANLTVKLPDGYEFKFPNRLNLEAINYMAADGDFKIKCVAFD
human Gal-3 (hGal-3), sequence (P17931 whole entry): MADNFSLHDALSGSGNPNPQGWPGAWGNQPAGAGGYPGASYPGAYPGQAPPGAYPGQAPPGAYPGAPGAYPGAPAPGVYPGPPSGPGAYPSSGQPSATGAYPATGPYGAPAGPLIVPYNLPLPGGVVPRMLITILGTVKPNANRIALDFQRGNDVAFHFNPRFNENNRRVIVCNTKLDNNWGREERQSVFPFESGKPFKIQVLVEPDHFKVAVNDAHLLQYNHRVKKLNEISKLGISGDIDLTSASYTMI

## CO[C@@H]1[C@@H](n2cc(-c3cc(F)cc(Br)c3)nn2)[C@@H](O)[C@@H](CO)O[C@H]1C(=O)N(c1cc(C)cc(C#N)c1)[C@H]1CCCC[C@@H]1O [Example 146, (2R,3R,4S,5R,6R)-4-(4-(3-bromo-5-fluorophenyl)-1H-1,2,3-triazol-1-yl)-N-(3-cyano-5-methylphenyl)-5-hydroxy-N-((1S,2S)-2-hydroxycyclohexyl)-6-(hydroxymethyl)-3-methoxytetrahydro-2H-pyran-2-carboxamide]
[1]
  IC50: 751 nM
[2]
  IC50: 50 nM

## CO[C@@H]1[C@@H](n2cc(-c3cc(F)cc(Br)c3)nn2)[C@@H](O)[C@@H](CO)O[C@H]1C(=O)N(c1cc(F)cc(Cl)c1)[C@H]1CCCC[C@@H]1O [Example 147, (2R,3R,4S,5R,6R)-4-(4-(3-bromo-5-fluorophenyl)-1H-1,2,3-triazol-1-yl)-N-(3-chloro-5-fluorophenyl)-5-hydroxy-N-((1S,2S)-2-hydroxycyclohexyl)-6-(hydroxymethyl)-3-methoxytetrahydro-2H-pyran-2-carboxamide]
[1]
  IC50: 530 nM
[2]
  IC50: 71 nM

## CO[C@@H]1[C@@H](n2cc(-c3cc(F)cc(Br)c3)nn2)[C@@H](O)[C@@H](CO)O[C@H]1C(=O)N(c1cccc(C#N)c1)[C@H]1CCCC[C@@H]1O [Example 148, (2R,3R,4S,5R,6R)-4-(4-(3-bromo-5-fluorophenyl)-1H-1,2,3-triazol-1-yl)-N-(3-cyanophenyl)-5-hydroxy-N-((1S,2S)-2-hydroxycyclohexyl)-6-(hydroxymethyl)-3-methoxytetrahydro-2H-pyran-2-carboxamide]
[1]
  IC50: 343 nM
[2]
  IC50: 81 nM

## CO[C@@H]1[C@@H](n2cc(-c3cc(F)cc(Br)c3)nn2)[C@@H](O)[C@@H](CO)O[C@H]1C(=O)N(c1cccc(Cl)c1)[C@H]1CCCC[C@@H]1O [Example 149, (2R,3R,4S,5R,6R)-4-(4-(3-bromo-5-fluorophenyl)-1H-1,2,3-triazol-1-yl)-N-(3-chlorophenyl)-5-hydroxy-N-((1S,2S)-2-hydroxycyclohexyl)-6-(hydroxymethyl)-3-methoxytetrahydro-2H-pyran-2-carboxamide]
[1]
  IC50: 707 nM
[2]
  IC50: 85 nM

## COc1cc(C#N)cc(N(C(=O)[C@@H]2O[C@H](CO)[C@H](O)[C@H](n3cc(-c4cc(F)cc(Br)c4)nn3)[C@H]2OC)[C@H]2CCCC[C@@H]2O)c1 [Example 150, (2R,3R,4S,5R,6R)-4-(4-(3-bromo-5-fluorophenyl)-1H-1,2,3-triazol-1-yl)-N-(3-cyano-5-methoxyphenyl)-5-hydroxy-N-((1S,2S)-2-hydroxycyclohexyl)-6-(hydroxymethyl)-3-methoxytetrahydro-2H-pyran-2-carboxamide]
[1]
  IC50: 671 nM
[2]
  IC50: 62 nM

## CO[C@@H]1[C@@H](n2cc(-c3cc(F)c(Br)c(F)c3)nn2)[C@@H](O)[C@@H](CO)O[C@H]1C(=O)N(c1cc(Cl)cc(Cl)c1)[C@H]1CCCC[C@@H]1O [Example 151, (2R,3R,4S,5R,6R)-4-(4-(4-bromo-3,5-difluorophenyl)-1H-1,2,3-triazol-1-yl)-N-(3,5-dichlorophenyl)-5-hydroxy-N-((1S,2S)-2-hydroxycyclohexyl)-6-(hydroxymethyl)-3-methoxytetrahydro-2H-pyran-2-carboxamide]
[1]
  IC50: 1130 nM
[2]
  IC50: 37 nM

## CO[C@@H]1[C@@H](n2cc(-c3cc(F)c(Br)c(F)c3)nn2)[C@@H](O)[C@@H](CO)O[C@H]1C(=O)N(c1ccc(F)c(F)c1)[C@H]1CCCC[C@@H]1O [Example 152, (2R,3R,4S,5R,6R)-4-(4-(4-bromo-3,5-difluorophenyl)-1H-1,2,3-triazol-1-yl)-N-(3,4-difluorophenyl)-5-hydroxy-N-((1S,2S)-2-hydroxycyclohexyl)-6-(hydroxymethyl)-3-methoxytetrahydro-2H-pyran-2-carboxamide]
[1]
  IC50: 3140 nM
[2]
  IC50: 62 nM

## CO[C@@H]1[C@@H](n2cc(-c3cc(F)c(Br)c(F)c3)nn2)[C@@H](O)[C@@H](CO)O[C@H]1C(=O)N(c1ccc2scnc2c1)[C@H]1CCCC[C@@H]1O [Example 153, (2R,3R,4S,5R,6R)-N-(benzo[d]thiazol-5-yl)-4-(4-(4-bromo-3,5-difluorophenyl)-1H-1,2,3-triazol-1-yl)-5-hydroxy-N-((1S,2S)-2-hydroxycyclohexyl)-6-(hydroxymethyl)-3-methoxytetrahydro-2H-pyran-2-carboxamide]
[1]
  IC50: 1080 nM
[2]
  IC50: 25 nM

## CO[C@@H]1[C@@H](n2cc(-c3cc(F)c(Br)c(F)c3)nn2)[C@@H](O)[C@@H](CO)O[C@H]1C(=O)N(c1cc(Cl)cc(C#N)c1)[C@H]1CCCC[C@@H]1O [Example 154, (2R,3R,4S,5R,6R)-4-(4-(4-bromo-3,5-difluorophenyl)-1H-1,2,3-triazol-1-yl)-N-(3-chloro-5-cyanophenyl)-5-hydroxy-N-((1S,2S)-2-hydroxycyclohexyl)-6-(hydroxymethyl)-3-methoxytetrahydro-2H-pyran-2-carboxamide]
[1]
  IC50: 957 nM
[2]
  IC50: 23 nM

## CO[C@@H]1[C@@H](n2cc(-c3cc(F)c(Br)c(F)c3)nn2)[C@@H](O)[C@@H](CO)O[C@H]1C(=O)N(c1cc(F)cc(C#N)c1)[C@H]1CCCC[C@@H]1O [Example 155, (2R,3R,4S,5R,6R)-4-(4-(4-bromo-3,5-difluorophenyl)-1H-1,2,3-triazol-1-yl)-N-(3-cyano-5-fluorophenyl)-5-hydroxy-N-((1S,2S)-2-hydroxycyclohexyl)-6-(hydroxymethyl)-3-methoxytetrahydro-2H-pyran-2-carboxamide]
[1]
  IC50: 1510 nM
[2]
  IC50: 24 nM

## CO[C@@H]1[C@@H](n2cc(-c3cc(F)c(C)c(F)c3)nn2)[C@@H](O)[C@@H](CO)O[C@H]1C(=O)N(c1cc(Cl)cc(Cl)c1)[C@H]1CCCC[C@@H]1O [Example 158, (2R,3R,4S,5R,6R)-N-(3,5-dichlorophenyl)-4-(4-(3,5-difluoro-4-methylphenyl)-1H-1,2,3-triazol-1-yl)-5-hydroxy-N-((1S,2S)-2-hydroxycyclohexyl)-6-(hydroxymethyl)-3-methoxytetrahydro-2H-pyran-2-carboxamide]
[1]
  IC50: 798 nM
[2]
  IC50: 15 nM

## CO[C@@H]1[C@@H](n2cc(-c3cc(F)c(C)c(F)c3)nn2)[C@@H](O)[C@@H](CO)O[C@H]1C(=O)N(c1cc(Cl)cc(C#N)c1)[C@H]1CCCC[C@@H]1O [Example 159, (2R,3R,4S,5R,6R)-N-(3-chloro-5-cyanophenyl)-4-(4-(3,5-difluoro-4-methylphenyl)-1H-1,2,3-triazol-1-yl)-5-hydroxy-N-((1S,2S)-2-hydroxycyclohexyl)-6-(hydroxymethyl)-3-methoxytetrahydro-2H-pyran-2-carboxamide]
[1]
  IC50: 528 nM
[2]
  IC50: 12 nM

## CO[C@@H]1[C@@H](n2cc(-c3cc(F)c(C)c(F)c3)nn2)[C@@H](O)[C@@H](CO)O[C@H]1C(=O)N(c1cc(F)cc(C#N)c1)[C@H]1CCCC[C@@H]1O [Example 161, (2R,3R,4S,5R,6R)-N-(3-cyano-5-fluorophenyl)-4-(4-(3,5-difluoro-4-methylphenyl)-1H-1,2,3-triazol-1-yl)-5-hydroxy-N-((1S,2S)-2-hydroxycyclohexyl)-6-(hydroxymethyl)-3-methoxytetrahydro-2H-pyran-2-carboxamide]
[1]
  IC50: 2170 nM
[2]
  IC50: 25 nM
